Strand notation (5' to 3'): a small letter for the sugar, then the base; units joined by * are phosphorothioate-linked, units joined directly phosphodiester-linked; [ ] holds rarer units or linkages, { } end groups; capitals alone tell only the bases. e = 2'-O-(2-methoxyethyl) (MOE); [5mC] = 5-methylcytosine; d = 2'-deoxy (DNA)
Tested on: human CETP mRNA
Assay: Antisense inhibition of human CETP mRNA in primary hepatocytes from huCETP transgenic mice (Example 4)
Assay type: cell-based, mouse
Details: 100 nM, cytofectin, ~24 hours
Protocol: Transgenic mice expressing human CETP, controlled by its natural flanking region, increase expression of this gene in response to hypercholesterolemia (Jiang, X. C. et al., J. Clin. Invest. 1992. 90: 1290-1295). These mice were utilized for the following studies. Antisense oligonucleotides targeted to a CETP nucleic acid and described in Example 1 were tested for their effect on CETP mRNA transcript in vitro. Cultured primary hepatocytes from huCETP transgenic mice, at a density of 17,500 cells per well in a 96-well plate, were transfected using cytofectin reagent with 100 nM or 200 nM antisense oligonucleotide. After approximately 24 hours, RNA was isolated from the cells and CETP mRNA levels were measured by quantitative real-time PCR. CETP mRNA transcript levels were adjusted according to total RNA content, as measured by the house-keeping gene, GAPDH mRNA levels. Results are presented in Table 6 as percent inhibition of CETP, relative to untreated control cells.

Substance | Percent inhibition of human CETP mRNA [%]
ISIS 349490: 5-10-5 MOE gapmer CCTCTTGGAAGATTTCCTGG (e[5mC]*e[5mC]*eT*e[5mC]*eT*dT*dG*dG*dA*dA*dG*dA*dT*dT*dT*e[5mC]*e[5mC]*eT*eG*eG) | 36
ISIS 349501: 5-10-5 MOE gapmer GCTGCTCTCAGTCAAGTTGG (eG*e[5mC]*eT*eG*e[5mC]*dT*d[5mC]*dT*d[5mC]*dA*dG*dT*d[5mC]*dA*dA*eG*eT*eT*eG*eG) | 54
ISIS 349461: 5-10-5 MOE gapmer ATACTTGACTTGGCCAAGGA (eA*eT*eA*e[5mC]*eT*dT*dG*dA*d[5mC]*dT*dT*dG*dG*d[5mC]*d[5mC]*eA*eA*eG*eG*eA) | 65
ISIS 349482: 5-10-5 MOE gapmer TGAAATGACCCTTGTGATGG (eT*eG*eA*eA*eA*dT*dG*dA*d[5mC]*d[5mC]*d[5mC]*dT*dT*dG*dT*eG*eA*eT*eG*eG) | 11
ISIS 349448: 5-10-5 MOE gapmer CCGTATATGTATGTCCGCCC (e[5mC]*e[5mC]*eG*eT*eA*dT*dA*dT*dG*dT*dA*dT*dG*dT*d[5mC]*e[5mC]*eG*e[5mC]*e[5mC]*e[5mC]) | 53
ISIS 349493: 5-10-5 MOE gapmer TGTTTTGGCAGGAGATCTTG (eT*eG*eT*eT*eT*dT*dG*dG*d[5mC]*dA*dG*dG*dA*dG*dA*eT*e[5mC]*eT*eT*eG) | 51
ISIS 349489: 5-10-5 MOE gapmer GTTGAAGCCCCAGGTCTCCA (eG*eT*eT*eG*eA*dA*dG*d[5mC]*d[5mC]*d[5mC]*d[5mC]*dA*dG*dG*dT*e[5mC]*eT*e[5mC]*e[5mC]*eA) | 47
ISIS 349468: 5-10-5 MOE gapmer TCAATACCCAGCCACCAGGC (eT*e[5mC]*eA*eA*eT*dA*d[5mC]*d[5mC]*d[5mC]*dA*dG*d[5mC]*d[5mC]*dA*d[5mC]*e[5mC]*eA*eG*eG*e[5mC]) | 53
ISIS 349476: 5-10-5 MOE gapmer CCTTCAGGACCAGCTTCAGG (e[5mC]*e[5mC]*eT*eT*e[5mC]*dA*dG*dG*dA*d[5mC]*d[5mC]*dA*dG*d[5mC]*dT*eT*e[5mC]*eA*eG*eG) | 49
ISIS 349467: 5-10-5 MOE gapmer GTGGTGTAGCCATACTTCAG (eG*eT*eG*eG*eT*dG*dT*dA*dG*d[5mC]*d[5mC]*dA*dT*dA*d[5mC]*eT*eT*e[5mC]*eA*eG) | 57

Same assay, conditions: 200 nM, cytofectin, ~24 hours

Substance | Percent inhibition of human CETP mRNA [%]
ISIS 349490: 5-10-5 MOE gapmer CCTCTTGGAAGATTTCCTGG (e[5mC]*e[5mC]*eT*e[5mC]*eT*dT*dG*dG*dA*dA*dG*dA*dT*dT*dT*e[5mC]*e[5mC]*eT*eG*eG) | 80
ISIS 349501: 5-10-5 MOE gapmer GCTGCTCTCAGTCAAGTTGG (eG*e[5mC]*eT*eG*e[5mC]*dT*d[5mC]*dT*d[5mC]*dA*dG*dT*d[5mC]*dA*dA*eG*eT*eT*eG*eG) | 45
ISIS 349461: 5-10-5 MOE gapmer ATACTTGACTTGGCCAAGGA (eA*eT*eA*e[5mC]*eT*dT*dG*dA*d[5mC]*dT*dT*dG*dG*d[5mC]*d[5mC]*eA*eA*eG*eG*eA) | 52
ISIS 349482: 5-10-5 MOE gapmer TGAAATGACCCTTGTGATGG (eT*eG*eA*eA*eA*dT*dG*dA*d[5mC]*d[5mC]*d[5mC]*dT*dT*dG*dT*eG*eA*eT*eG*eG) | 65
ISIS 349448: 5-10-5 MOE gapmer CCGTATATGTATGTCCGCCC (e[5mC]*e[5mC]*eG*eT*eA*dT*dA*dT*dG*dT*dA*dT*dG*dT*d[5mC]*e[5mC]*eG*e[5mC]*e[5mC]*e[5mC]) | 40
ISIS 349493: 5-10-5 MOE gapmer TGTTTTGGCAGGAGATCTTG (eT*eG*eT*eT*eT*dT*dG*dG*d[5mC]*dA*dG*dG*dA*dG*dA*eT*e[5mC]*eT*eT*eG) | 62
ISIS 349489: 5-10-5 MOE gapmer GTTGAAGCCCCAGGTCTCCA (eG*eT*eT*eG*eA*dA*dG*d[5mC]*d[5mC]*d[5mC]*d[5mC]*dA*dG*dG*dT*e[5mC]*eT*e[5mC]*e[5mC]*eA) | 67
ISIS 349468: 5-10-5 MOE gapmer TCAATACCCAGCCACCAGGC (eT*e[5mC]*eA*eA*eT*dA*d[5mC]*d[5mC]*d[5mC]*dA*dG*d[5mC]*d[5mC]*dA*d[5mC]*e[5mC]*eA*eG*eG*e[5mC]) | 50
ISIS 349476: 5-10-5 MOE gapmer CCTTCAGGACCAGCTTCAGG (e[5mC]*e[5mC]*eT*eT*e[5mC]*dA*dG*dG*dA*d[5mC]*d[5mC]*dA*dG*d[5mC]*dT*eT*e[5mC]*eA*eG*eG) | 60
ISIS 349467: 5-10-5 MOE gapmer GTGGTGTAGCCATACTTCAG (eG*eT*eG*eG*eT*dG*dT*dA*dG*d[5mC]*d[5mC]*dA*dT*dA*d[5mC]*eT*eT*e[5mC]*eA*eG) | 51

Tested on: human CETP mRNA
Assay: Antisense inhibition of human CETP mRNA in SW872 liposarcoma cells (Example 1)
Assay type: cell-based
Details: 150 nM antisense oligonucleotide, lipofectin, ~24 hours, relative to untreated control cells
Protocol: Antisense oligonucleotides targeted to a CETP nucleic acid were tested for their effect on CETP mRNA transcript in vitro. Cultured SW872 liposarcoma cells at a density of 50,000 cells per well in a 24-well plate were transfected using lipofectin reagent with 150 nM antisense oligonucleotide. After approximately 24 hours, RNA was isolated from the cells and CETP mRNA levels were measured by quantitative real-time PCR. A human primer probe set (forward sequence […], designated herein as SEQ ID NO: 38; reverse sequence GGCTCACGCCTTTGCTGTT, designated herein as SEQ ID NO: 39; probe sequence […], designated herein as SEQ ID NO: 40) was used to quantitate CETP mRNA. CETP mRNA transcript levels were adjusted according to total RNA content, as measured by the house-keeping gene, GAPDH mRNA levels. GAPDH was measured using a primer probe set with the sequence as set forth in SEQ ID NOs: 10, 11, 13. Results are presented as percent inhibition of CETP, relative to untreated control cells.
The antisense oligonucleotides in Table 3 are 5-10-5 gapmers, where the gap segment comprises ten 2′-deoxynucleosides and each wing segment comprises five 2′-MOE nucleosides. Each nucleotide in the 5′ wing segment and each nucleotide in the 3′ wing segment has a 2′-MOE modification. The internucleoside linkages throughout each gapmer are phosphorothioate (P═S) linkages. All cytosine residues throughout each gapmer are 5-methylcytosines. ‘Target start site’ indicates the 5′-most nucleotide to which the antisense oligonucleotide is targeted. ‘Target stop site’ indicates the 3′-most nucleotide to which the antisense oligonucleotide is targeted. All the antisense oligonucleotides listed in Table 3 target human CETP mRNA, designated herein as SEQ ID NO: 1 (GENBANK Accession No. M30185.1).

Substance | % inhibition [%]
ISIS 349490: 5-10-5 MOE gapmer CCTCTTGGAAGATTTCCTGG (e[5mC]*e[5mC]*eT*e[5mC]*eT*dT*dG*dG*dA*dA*dG*dA*dT*dT*dT*e[5mC]*e[5mC]*eT*eG*eG) | 89
ISIS 349501: 5-10-5 MOE gapmer GCTGCTCTCAGTCAAGTTGG (eG*e[5mC]*eT*eG*e[5mC]*dT*d[5mC]*dT*d[5mC]*dA*dG*dT*d[5mC]*dA*dA*eG*eT*eT*eG*eG) | 67
ISIS 349461: 5-10-5 MOE gapmer ATACTTGACTTGGCCAAGGA (eA*eT*eA*e[5mC]*eT*dT*dG*dA*d[5mC]*dT*dT*dG*dG*d[5mC]*d[5mC]*eA*eA*eG*eG*eA) | 97
ISIS 349482: 5-10-5 MOE gapmer TGAAATGACCCTTGTGATGG (eT*eG*eA*eA*eA*dT*dG*dA*d[5mC]*d[5mC]*d[5mC]*dT*dT*dG*dT*eG*eA*eT*eG*eG) | 51
ISIS 349448: 5-10-5 MOE gapmer CCGTATATGTATGTCCGCCC (e[5mC]*e[5mC]*eG*eT*eA*dT*dA*dT*dG*dT*dA*dT*dG*dT*d[5mC]*e[5mC]*eG*e[5mC]*e[5mC]*e[5mC]) | 0
ISIS 349493: 5-10-5 MOE gapmer TGTTTTGGCAGGAGATCTTG (eT*eG*eT*eT*eT*dT*dG*dG*d[5mC]*dA*dG*dG*dA*dG*dA*eT*e[5mC]*eT*eT*eG) | 67
ISIS 349489: 5-10-5 MOE gapmer GTTGAAGCCCCAGGTCTCCA (eG*eT*eT*eG*eA*dA*dG*d[5mC]*d[5mC]*d[5mC]*d[5mC]*dA*dG*dG*dT*e[5mC]*eT*e[5mC]*e[5mC]*eA) | 48
ISIS 349468: 5-10-5 MOE gapmer TCAATACCCAGCCACCAGGC (eT*e[5mC]*eA*eA*eT*dA*d[5mC]*d[5mC]*d[5mC]*dA*dG*d[5mC]*d[5mC]*dA*d[5mC]*e[5mC]*eA*eG*eG*e[5mC]) | 33
ISIS 349476: 5-10-5 MOE gapmer CCTTCAGGACCAGCTTCAGG (e[5mC]*e[5mC]*eT*eT*e[5mC]*dA*dG*dG*dA*d[5mC]*d[5mC]*dA*dG*d[5mC]*dT*eT*e[5mC]*eA*eG*eG) | 59
ISIS 349467: 5-10-5 MOE gapmer GTGGTGTAGCCATACTTCAG (eG*eT*eG*eG*eT*dG*dT*dA*dG*d[5mC]*d[5mC]*dA*dT*dA*d[5mC]*eT*eT*e[5mC]*eA*eG) | 35

Tested on: human CETP mRNA
Assay: Dose-dependent antisense inhibition of human CETP in SW872 liposarcoma cells (Example 2)
Assay type: cell-based
Details: 50 nM, Lipofectin, ~16 hours (Example 2)
Protocol: Cells were plated at a density of 50,000 cells per well in a 24-well plate and transfected using Lipofectin reagent with 50 nM, 150 nM, and 300 nM concentrations of each antisense oligonucleotide. After approximately 16 hours, RNA was isolated from the cells and CETP mRNA levels were measured by quantitative real-time PCR. CETP mRNA levels were normalized to total RNA content, as measured by the house-keeping gene, GAPDH mRNA levels. Results are presented in Table 4 as percent inhibition of CETP, relative to untreated control cells.

Substance | percent inhibition of CETP [%]
ISIS 349490: 5-10-5 MOE gapmer CCTCTTGGAAGATTTCCTGG (e[5mC]*e[5mC]*eT*e[5mC]*eT*dT*dG*dG*dA*dA*dG*dA*dT*dT*dT*e[5mC]*e[5mC]*eT*eG*eG) | 97
ISIS 349461: 5-10-5 MOE gapmer ATACTTGACTTGGCCAAGGA (eA*eT*eA*e[5mC]*eT*dT*dG*dA*d[5mC]*dT*dT*dG*dG*d[5mC]*d[5mC]*eA*eA*eG*eG*eA) | 75

Same assay, conditions: 150 nM, Lipofectin, ~16 hours (Example 2)

Substance | percent inhibition of CETP [%]
ISIS 349490: 5-10-5 MOE gapmer CCTCTTGGAAGATTTCCTGG (e[5mC]*e[5mC]*eT*e[5mC]*eT*dT*dG*dG*dA*dA*dG*dA*dT*dT*dT*e[5mC]*e[5mC]*eT*eG*eG) | 93
ISIS 349461: 5-10-5 MOE gapmer ATACTTGACTTGGCCAAGGA (eA*eT*eA*e[5mC]*eT*dT*dG*dA*d[5mC]*dT*dT*dG*dG*d[5mC]*d[5mC]*eA*eA*eG*eG*eA) | 80

Same assay, conditions: 300 nM, Lipofectin, ~16 hours (Example 2)

Substance | percent inhibition of CETP [%]
ISIS 349490: 5-10-5 MOE gapmer CCTCTTGGAAGATTTCCTGG (e[5mC]*e[5mC]*eT*e[5mC]*eT*dT*dG*dG*dA*dA*dG*dA*dT*dT*dT*e[5mC]*e[5mC]*eT*eG*eG) | 88
ISIS 349461: 5-10-5 MOE gapmer ATACTTGACTTGGCCAAGGA (eA*eT*eA*e[5mC]*eT*dT*dG*dA*d[5mC]*dT*dT*dG*dG*d[5mC]*d[5mC]*eA*eA*eG*eG*eA) | 88

Source: US20130053430A1, “MODULATION OF CETP EXPRESSION” (Isis Pharmaceuticals, Inc., priority 2010, published 2013)
